What is called ΔTm is the change in melting temperature against a reference sample.

From PMC8533391 (2021) come the findings set out here.

For this assay, the system named is d(GTTAATCGCTGG) double-stranded DNA 12-oligomer (DNA, duplex) GTTAATCGCTGG/CCAGCGATTAAC
The experiment in a line: UV melting at 260 nm. Particulars: Na+ (0.05 mM NaOH), 10 μM compound, 2.5 μM DNA, cacodylate, pH 7.2.

`C(=N\[C@H]1CC[C@H](/N=C/c2nccs2)CC1)/c1nccs1`: the ΔTm (derived from two Tm (47.4 ± 0.6, free 48.3 ± 0.3)) was -0.9 °C.

On to `C(=N\[C@H]1CC[C@H](/N=C/c2nccs2)CC1)/c1nccs1.C(=N\[C@H]1CC[C@H](/N=C/c2nccs2)CC1)/c1nccs1.[Ag+].[Ag+]`, for which the ΔTm (derived from two Tm (46.2 ± 0.8, free 48.3 ± 0.3)) was -2.1 °C.
